Assays:
bone metastatic disease = settings: orthotopic xenograft models and genetic mouse models; cited from earlier work
Akt or ERK = experiment: Western blotting, Akt or ERK phosphorylation; format: cell-based, human; settings: Gamitrinib 5 μM
Experimental: (§1) Protein lysates were prepared in RIPA buffer containing 150 mM NaCl, 1.0% Triton X-100, 0.5% sodium deoxycholate, 0.1% SDS, 50 mM Tris, pH 8.0, in the presence of EDTA-free protease inhibitor cocktail (Roche) and phosphatase inhibitor cocktail 2 and 3 (Sigma Aldrich). Equal amounts of protein lysates were separated by SDS gel electrophoresis, transferred to PVDF membranes and incubated with primary antibodies of various specificities. Protein bands were detected by chemiluminescence, as described (21).

Src = experiment: Western blotting, Src phosphorylation; format: cell-based, human; settings: Gamitrinib 5 μM
Experimental: as §1

AMPK = experiment: Western blotting, AMPK and ACC phosphorylation; format: cell-based, human
Experimental: as §1

LN229 cells = experiment: ATP measurement (luciferin-luciferase); format: cell-based, human; settings: Gamitrinib 5-10 μM, concentration-dependent
Experimental: Intracellular ATP concentrations were measured by the luciferin-luciferase method using an ATP measuring kit (Biochain). The ATP concentration in each extract was determined in a microplate luminometer (Beckman Coulter) against standard ATP solutions used as reference.

[1] = tested on: Focal Adhesion Kinase (FAK); experiment: Western blotting, FAK phosphorylation; format: cell-based, human; settings: tumor cells (PC3); Gamitrinib 5 μM, CCCP 12.5 μM, rapamycin 0.1 μM
Experimental: as §1

PC3 cells [2] = experiment: Wound closure assay, tumor cells; format: cell-based, human; settings: Gamitrinib 5 μM, 16 and 24 h
Raptor = experiment: Western blotting, Raptor phosphorylation; format: cell-based, human; settings: PC3; Gamitrinib 5 μM, metformin 5 mM 6 h, 17-AAG 5 μM
Experimental: as §1

Rac1 and Cdc42 = experiment: Rac1 and Cdc42-GTP pull-down assays; format: cell-based, human; settings: serum-starved A549 cells stimulated with EGF or FBS; Gamitrinib 5 μM
Experimental: The activation of Rho family small GTPases, Rac1 or Cdc42 was examined in pull-down assays using the p21-binding domain (PBD, amino acids 70-117) of the p21-activated kinase-1 (Pak1). Briefly, a pGEX TK-Pak1 PBD cDNA (Addgene, Cat. no. #12217) was purified, transformed into BL21 E. coli competent cells (Stratagene), and expressed as recombinant GST fusion protein after induction with 1 mM IPTG for 4 h at 34° C. Cells were suspended in PBS, pH 7.2, in the presence of protease inhibitors (SIGMA), and broken by sonication in 1% Triton X-100 for 30 min at 4° C. Soluble proteins were isolated by chromatography on glutathione Sepharose 4B (GS4B, GE Healthcare), eluted in 3 consecutive steps in buffer containing 10 mM GSH, 50 mM Tris HCl, pH 8.0, and further desalted using Amicon Ultra 4/10K columns (Millipore), for a total of 3 buffer changes to PBS, pH 7.2. The protein was diluted in glycerol, quantified by absorbance at 280 nm, and stored at −80° C. until use. The activity of each batch of recombinant protein was assessed by incubating aliquots of the cell lysate with non-hydrolyzable GTPγS at 0.1 mM (maximum binding) or 1 mM GDP (negative control) in low Mg2+ buffer at 30° C. followed by pull-down (54). […]

tumor cells = settings: previous data (23); cited from earlier work
[3] = tested on: p21-activated kinases, Pak-1,2; experiment: Western blotting, Pak phosphorylation; format: cell-based, human; settings: Gamitrinib 5 μM
Experimental: as §1

PC3 cells [4] = experiment: Lamella dynamics in live cells (SACED stroboscopic analysis); format: cell-based, human; settings: Gamitrinib 5 μM
Experimental: Tumor cells growing at low confluency (3-5×10^4/well) on high optical quality 96 well μ-plates (Ibidi) were imaged with a 40× objective on a Nikon TE300 inverted time-lapse microscope equipped with a video system containing a Evolution QEi camera and a time-lapse video cassette recorder. All experiments were carried out in atmosphere-equilibrated environment at 37° C. and 5% CO2. Phase contrast images were captured at 0.5 sec intervals for 5 min (600 images=300 sec) and merged into sequence files using ImagePro Plus 7. Real time dynamics of a particular cellular region were quantified by Stroboscopic Analysis of Cell Dynamics (SACED) (55), with generation of digital steps from the first 120 sec (240 frames) of the sequence files imported into Image J software. A particular region of 16.2 μm×0.162 μm (“SACED line”) was selected in cells under analysis, duplicated and montaged in sequence to display the region over time in a stroboscopic image. […] Structures such as protruding lamellipodia and ruffles were manually labeled and the frequency of ruffles per min was calculated. Mean values were calculated from at least 15 cells from 4 separate wells. All experiments were repeated at least twice with different tumor cell types.

For Gamitrinib, the bone metastatic disease (bone metastatic disease) is listed as “inhibit bone metastatic disease”, the “Akt or ERK phosphorylation” value (Akt or ERK) is listed as “not affected” and the “Src phosphorylation on Tyr416” value (Src) is listed as “inhibited the phosphorylation”. For the same substance, the “AMPK phosphorylation during nutrient deprivation” value (AMPK; LN229, Gamitrinib 5 μM, with or without glucose) was “increased AMPK phosphorylation”, the “AMPK and ACC phosphorylation” value (AMPK; PC3, Gamitrinib 5 μM time course, metformin 5 mM 6 h, 17-AAG 5 μM time course) was “induced early phosphorylation” and the “ATP production in tumor cells” value (LN229 cells) was “inhibited ATP production”. For the same substance, the “FAK phosphorylation on Tyr397 and Tyr925” value [1] was “loss of phosphorylation”, the “tumor cell migration in wound closure assay” value (PC3 cells [2]) was “inhibited tumor cell migration” and the “Raptor phosphorylation on Ser792” value (Raptor) was “induced strong phosphorylation”. The “activation of Rac1 and Cdc42 (GTP-bound)” value (Rac1 and Cdc42) was “impaired”, the “O2 consumption in tumor cells” value (tumor cells) was “inhibited O2 consumption” and the “Pak-1,2 phosphorylation on Ser199, Ser144 and Ser20” value [3] was “inhibited the phosphorylation”. For the same substance, the “ruffling frequency and retraction speed” value (PC3 cells [4]; PC3) was “profound inhibition” and the cytoskeletal lamella dynamics (PC3 cells [4]; single cell time-lapse videomicroscopy) was “nearly complete loss”.
